Where “and” joins values, the source holds several entries; their conditions need not be identical. Equal values may be shown once. Read-outs that look alike come from different tables or passages of the source.
Test system: DosRST regulon
Format: cell-based
Settings: for Counts per million (CPM) WT_HC103A: replicates 1, 2

O=C(Nc1cccc(O)c1)c1cccc(NC(=O)c2cccs2)c1 [HC103A, N-[3-[(3 hydroxyphenyl)carbamoyl]phenyl]thiophene-2-carboxamide]
WT DMSO/WT HC103A fold change (gene MT2019 (Rv1967)): 0.1846
log2 Fold change (gene MT2019 (Rv1967)): −2.437
Counts per million (CPM) WT_HC103A (gene MT2019 Rv1967): 58.15 CPM and 26.3 CPM
WT DMSO/WT HC103A fold change (gene MT2020 Rv1968): 0.199
log2 Fold change (gene MT2020 Rv1968): −2.329
Counts per million (CPM) WT_HC103A (gene MT2020 Rv1968): 72.37 CPM and 31.88 CPM
WT DMSO/WT HC103A fold change (gene MT2021 (Rv1969)): 0.2997
log2 Fold change (gene MT2021 (Rv1969)): −1.738
Counts per million (CPM) WT_HC103A (gene MT2021 Rv1969): 29.34 CPM and 13.9 CPM
WT DMSO/WT HC103A fold change (gene MT2022 (Rv1970 lprM)): 0.2084
log2 Fold change (gene MT2022 (Rv1970 lprM)): −2.263
Counts per million (CPM) WT_HC103A (gene MT2022 Rv1970 lprM): 41.74 CPM and 24.09 CPM
WT DMSO/WT HC103A fold change (gene MT2023 (Rv1971)): 0.2079
log2 Fold change (gene MT2023 (Rv1971)): −2.266
Counts per million (CPM) WT_HC103A (gene MT2023 Rv1971): 53.39 CPM and 33.31 CPM
WT DMSO/WT HC103A fold change (gene MT2024 (Rv1972)): 0.3791
log2 Fold change (gene MT2024 (Rv1972)): −1.399
Counts per million (CPM) WT_HC103A (gene MT2024 Rv1972): 12.78 CPM and 9.286 CPM
WT DMSO/WT HC103A fold change (gene MT2048 Rv1992c ctpG): 0.2903
log2 Fold change (gene MT2048 Rv1992c ctpG): −1.784
Counts per million (CPM) WT_HC103A (gene MT2048 Rv1992c ctpG): 531.4 CPM and 326.8 CPM
WT DMSO/WT HC103A fold change (gene MT2052 (Rv1996)): 0.003741
log2 Fold change (gene MT2052 (Rv1996)): −8.063
Counts per million (CPM) WT_HC103A (gene MT2052 Rv1996): 107.1 CPM and 83.44 CPM
WT DMSO/WT HC103A fold change (gene MT2053 (Rv1997 ctpF)): 0.0183
log2 Fold change (gene MT2053 (Rv1997 ctpF)): −5.772
Counts per million (CPM) WT_HC103A (gene MT2053 Rv1997 ctpF): 57.85 CPM and 33.12 CPM
WT DMSO/WT HC103A fold change (gene MT2059 (Rv2003c)): 0.1063
log2 Fold change (gene MT2059 (Rv2003c)): −3.234
Counts per million (CPM) WT_HC103A (gene MT2059 Rv2003c): 93.54 CPM and 62.92 CPM
WT DMSO/WT HC103A fold change (gene MT2060 Rv2004c): 0.05469
log2 Fold change (gene MT2060 Rv2004c): −3.95
Counts per million (CPM) WT_HC103A (gene MT2060 Rv2004c): 219.7 CPM and 144.4 CPM
WT DMSO/WT HC103A fold change (gene MT2061 Rv2005c): 0.04809
log2 Fold change (gene MT2061 Rv2005c): −4.378
Counts per million (CPM) WT_HC103A (gene MT2061 Rv2005c): 138.4 CPM and 91.76 CPM
WT DMSO/WT HC103A fold change (gene MT2062 Rv2006 otsB): 0.1408
log2 Fold change (gene MT2062 Rv2006 otsB): −2.828
Counts per million (CPM) WT_HC103A (gene MT2062 Rv2006 otsB): 107.5 CPM and 97.41 CPM
WT DMSO/WT HC103A fold change (gene MT2063 Rv2007c fdxA): 0.08678
log2 Fold change (gene MT2063 Rv2007c fdxA): −4.765
Counts per million (CPM) WT_HC103A (gene MT2063 Rv2007c fdxA): 527.8 CPM and 132.3 CPM
WT DMSO/WT HC103A fold change (gene MT2086 (Rv2027c)): 0.2521
log2 Fold change (gene MT2086 (Rv2027c)): −1.988
Counts per million (CPM) WT_HC103A (gene MT2086 Rv2027c): 73.2 CPM and 62.79 CPM
WT DMSO/WT HC103A fold change (gene MT2087 Rv2028c): 0.02878
log2 Fold change (gene MT2087 Rv2028c): −5.119
Counts per million (CPM) WT_HC103A (gene MT2087 Rv2028c): 35.92 CPM and 8.702 CPM
WT DMSO/WT HC103A fold change (gene MT2088): 0.01366
log2 Fold change (gene MT2088): −6.194
Counts per million (CPM) WT_HC103A (gene MT2088): 84.09 CPM and 21.3 CPM
WT DMSO/WT HC103A fold change (gene MT2089 Rv2030c): 0.01775
log2 Fold change (gene MT2089 Rv2030c): −5.816
Counts per million (CPM) WT_HC103A (gene MT2089 Rv2030c): 451.1 CPM and 80.39 CPM
WT DMSO/WT HC103A fold change (gene MT2090): 0.0164
log2 Fold change (gene MT2090): −5.93
WT DMSO/WT HC103A fold change (gene MT2091 Rv2032): 0.01154
log2 Fold change (gene MT2091 Rv2032): −6.438
WT DMSO/WT HC103A fold change (gene MT2445.1): 0.4105
log2 Fold change (gene MT2445.1): −1.285
WT DMSO/WT HC103A fold change (gene MT2556 Rv2483c): 0.3592
log2 Fold change (gene MT2556 Rv2483c): −1.477
WT DMSO/WT HC103A fold change (gene MT2557 Rv2484c): 0.3196
log2 Fold change (gene MT2557 Rv2484c): −1.646
WT DMSO/WT HC103A fold change (gene MT2574 Rv2499c): 0.3086
log2 Fold change (gene MT2574 Rv2499c): −1.696
WT DMSO/WT HC103A fold change (gene MT2576): 0.2991
log2 Fold change (gene MT2576): −1.741
WT DMSO/WT HC103A fold change (gene MT2577 Rv2502c accD1): 0.3334
log2 Fold change (gene MT2577 Rv2502c accD1): −1.585
WT DMSO/WT HC103A fold change (gene MT2578 Rv2503c scoB): 0.2841
log2 Fold change (gene MT2578 Rv2503c scoB): −1.815
WT DMSO/WT HC103A fold change (gene MT2579 Rv2504c scoA): 0.281
log2 Fold change (gene MT2579 Rv2504c scoA): −1.831
WT DMSO/WT HC103A fold change (gene MT2698 Rv2623): 0.006998
log2 Fold change (gene MT2698 Rv2623): −7.159
WT DMSO/WT HC103A fold change (gene MT2699 Rv2624c): 0.01316
log2 Fold change (gene MT2699 Rv2624c): −6.247
WT DMSO/WT HC103A fold change (gene MT2700 Rv2625c): 0.007921
log2 Fold change (gene MT2700 Rv2625c): −6.98
WT DMSO/WT HC103A fold change (gene MT2701 Rv2626c): 0.00844
log2 Fold change (gene MT2701 Rv2626c): −6.888
WT DMSO/WT HC103A fold change (gene MT2702 Rv2627c): 0.005338
log2 Fold change (gene MT2702 Rv2627c): −7.55
WT DMSO/WT HC103A fold change (gene MT2703 Rv2678): 0.02894
log2 Fold change (gene MT2703 Rv2678): −5.111
WT DMSO/WT HC103A fold change (gene MT2704 Rv2629): 0.05675
log2 Fold change (gene MT2704 Rv2629): −4.139
WT DMSO/WT HC103A fold change (gene MT2705 Rv2630): 0.07365
log2 Fold change (gene MT2705 Rv2630): 3.763
WT DMSO/WT HC103A fold change (gene MT2707 Rv2631): 0.07456
log2 Fold change (gene MT2707 Rv2631): −3.745
WT DMSO/WT HC103A fold change (gene MT3171 Rv3086 adhD): 0.4045
log2 Fold change (gene MT3171 Rv3086 adhD): −1.306
WT DMSO/WT HC103A fold change (gene MT3210): 0.0164
log2 Fold change (gene MT3210): −5.93
WT DMSO/WT HC103A fold change (gene MT3212 Rv3127): 0.01248
log2 Fold change (gene MT3212 Rv3127): −6.324
WT DMSO/WT HC103A fold change (gene MT3216 Rv3130c): 0.005779
log2 Fold change (gene MT3216 Rv3130c): −7.435
WT DMSO/WT HC103A fold change (gene MT3217 Rv3131): 0.004749
log2 Fold change (gene MT3217 Rv3131): −7.718
WT DMSO/WT HC103A fold change (gene MT3218 Rv3132c): 0.04611
log2 Fold change (gene MT3218 Rv3132c): −4.439
WT DMSO/WT HC103A fold change (gene MT3219 Rv3133c): 0.0294
log2 Fold change (gene MT3219 Rv3133c): −5.088
WT DMSO/WT HC103A fold change (gene MT3220 Rv3134c): 0.02054
log2 Fold change (gene MT3220 Rv3134c): −5.606
WT DMSO/WT HC103A fold change (gene MT3427): 0.4435
log2 Fold change (gene MT3427): −1.173
WT DMSO/WT HC103A fold change (gene MT3443 Rv3340 metC): 0.3114
log2 Fold change (gene MT3443 Rv3340 metC): −1.683
WT DMSO/WT HC103A fold change (gene MT3444 Rv3341 metA): 0.2535
log2 Fold change (gene MT3444 Rv3341 metA): −1.924
WT DMSO/WT HC103A fold change (gene MT3608 Rv3504 fadE26): 0.3558
log2 Fold change (gene MT3608 Rv3504 fadE26): −1.491
WT DMSO/WT HC103A fold change (gene MT3634 Rv3531c): 0.2978
log2 Fold change (gene MT3634 Rv3531c): −1.748
WT DMSO/WT HC103A fold change (gene MT3656 Rv3552): 0.3116
log2 Fold change (gene MT3656 Rv3552): −1.582
WT DMSO/WT HC103A fold change (gene MT3716 Rv3614c): 0.3057
log2 Fold change (gene MT3716 Rv3614c): −1.71
WT DMSO/WT HC103A fold change (gene MT3717 Rv3615c): 0.3122
log2 Fold change (gene MT3717 Rv3615c): −1.679
WT DMSO/WT HC103A fold change (gene MT3718 Rv3616c): 0.3166
log2 Fold change (gene MT3718 Rv3616c): −1.659

From US11717508B2, “Compounds, compositions, and methods for inhibiting bacterial growth” (priority 2016, dated 2023)
